Measured values taken from PMC7391726, “Fatty acid mimetic PBI-4547 restores metabolic homeostasis via GPR84 in mice with non-alcoholic fatty liver disease” (Scientific Reports, 2020).

Tested on: HFD-fed WT mice
Assay: High-fat diet (HFD) mouse model of obesity/NAFLD, WT mice
Type: in vivo
From the text: The well-established high-fat diet (HFD) mouse model of obesity was used to study the impact of PBI-4547 on the onset and progression of NAFLD. A 14-week HFD regimen led to significant weight gain in both male and female mice. […] Moreover, PBI-4547 decreased serum triglycerides while enhancing adiponectin levels. […] Of note, the effects of PBI-4547 on bodyweight, food consumption, glucose tolerance, fasting blood glucose, insulin resistance and HOMA-β indices were absent in standard diet-fed mice (Table S1).
Total cholesterol levels were measured using the HDL/LDL/VLDL Cholesterol Assay kit (Abcam) according to manufacturer’s protocol. […] Liver triglycerides were extracted using a modified version of the Folch protocol[49]^, then quantified using a triglyceride colorimetric kit (Cayman Chemical).
WT or Gpr84^−/− mice, as previously described, (aged 10–14 weeks at the beginning of the experiment) were either fed a standard diet (STD) or a high-fat diet (HFD) (Envigo #TD.06414) for 14 weeks. At this point, mice were administered either vehicle (water) or PBI-4547 (10 mg/kg) on a daily basis for 6 (WT study) or 8 (WT vs KO study) weeks by gastric gavage, and were sacrificed thereafter. Liver and WAT tissues were fixed in 10% formalin for histological analyses or flash frozen in liquid nitrogen for RT-PCR analyses. All animal studies were reviewed and approved by the animal care and use committee of the Institut National de la Recherche Scientifique – Armand-Frappier (Laval, QC, Canada) and the University of Ottawa’s Animal Care and Veterinary Services (Ottawa, ON, Canada). Protocols were approved and undertaken according to the Canadian Council on Animal Care guidelines.
Oral glucose tolerance tests (OGTT) were completed 6 weeks after beginning of the treatments. Briefly, mice were fasted for 4–6 h, given a bolus of glucose at […] BW orally, and blood glucose values measured at 0, 15, 30, 60, 120 min. In parallel, a blood sample was obtained at 0, 15, 60 and 120 min for insulin quantification by ELISA (EMD Millipore).
After fixation in formalin, iWAT (inguinal), eWAT (epididymal) and liver sections were embedded in paraffin. Thin section of […] were stained with Hematoxylin and Eosin or Sirius red for analyses. WAT collagen deposition and liver characteristics of NAFLD were quantified histologically by a pathologist (R.C.) in a double-blinded manner. Liver histology was performed on H&E stained slides. WAT collagen deposition was scored using Picro Sirius-Red stained slides. Immunofluorescence-detection of α-SMA in liver sections was performed. Briefly, samples were deparaffinized in a series of xylenes, rehydrated in graded alcohols followed by an antigen-unmasking step by microwaving in Tris-buffer (pH 8.2). Sections were blocked with 10% donkey serum (Vector labs), 1% bovine serum albumin (Sigma) in PBS + 1%Tween for 1 h at room temperature. Slides were incubated overnight at 4 °C with an anti-mouse smooth muscle α-Actin antibody (1:300; Santa Cruz, clone #1A4). Secondary detection was performed using a donkey anti-mouse Alexa Fluor 594 (1:500; Molecular Probes), incubated for 1 h at room temperature. Slides were dehydrated and mounted with fluorescent antifade media containing DAPI (Vector labs). Images were taken at 100X and 200X magnification and representative images are shown.
RNA was extracted and purified as previously described. Real-time quantitative PCR was performed on a CFX96 Touch Real-Time PCR Detection System (Bio-Rad) using TaqMan gene expression assays (Fisher Scientific). qPCR data were analyzed using the 2-^ΔΔCt method, using Gapdh and Hprt as endogenous control. RT-qPCR data were reported as Geometric means ± SEM.
A portion of hepatic tissue (50 mg) was mechanically homogenized in 1 mL H2O/CH3CN (1/1) using a PowerGen 125 homogenizer (Fisher Scientific). The homogenates were centrifuged for 10 min at 5,000×g at 4 °C. Hydrophilic metabolites were lyophilized to remove water for NMR experiments. […]

[1] = HFD mice, 1H-NMR liver metabolomics

Question: For `CCCCCc1cc(CCCCC)cc(CC(=O)[O-])c1.[Na+]` [PBI-4547, 2-[3,5-dipentylphenyl]acetate sodium salt], which HOMA-IR index (HFD mice, 10 mg/kg daily) is on record?
Answer: decreased by PBI-4547 to the STD group level

Question: What about the “degree of hepatic inflammation (histology)” value (HFD mice, 10 mg/kg daily) of the same compound?
Answer: remained unchanged

Question: What about the disposition index (HFD mice, 10 mg/kg daily) of the same compound?
Answer: remained unchanged

Question: What about the fasting insulin levels (HFD mice, 10 mg/kg daily) of the same compound?
Answer: lowered

Question: And the “hepatic ballooning (histology)” value (HFD mice, 10 mg/kg daily)?
Answer: markedly reduced

Question: And the “hepatic steatosis (histology)” value (HFD mice, 10 mg/kg daily)?
Answer: markedly reduced

Question: What about the liver total cholesterol (HFD mice, 10 mg/kg daily) of the same compound?
Answer: without affecting

Question: And the liver triglyceride levels (HFD mice, 10 mg/kg daily)?
Answer: reduced

Question: And the “oral glucose tolerance test (OGTT)” value (HFD mice, 10 mg/kg daily)?
Answer: better glycemic control

Question: And the “overall NAFLD score” value (HFD mice, 10 mg/kg daily)?
Answer: significantly improving

Question: And the serum adiponectin levels (HFD mice, 10 mg/kg daily)?
Answer: enhancing

Question: And the serum triglycerides (HFD mice, 10 mg/kg daily)?
Answer: decreased

Question: What about the organ weight (HFD mice, 10 mg/kg daily by gavage) of the same compound?
Answer: without affecting

Question: What about the bodyweight (HFD mice, 10 mg/kg daily by gavage, 5 weeks after beginning of treatment) of the same compound?
Answer: significant reduction

Question: What about the fasting blood glucose (HFD mice, 10 mg/kg daily, after 6 weeks of treatment) of the same compound?
Answer: decreased

Question: And the “hepatic dysregulation of key amino acids and citric acid cycle intermediates (metabolomics)” value [1]?
Answer: corrected

Question: And the “hepatic energy metabolism intermediates (metabolomics)” value [1]?
Answer: restored back to normal levels

Question: And the “maximum diameter or average size of adipocytes” value (HFD mice, WAT morphometric analysis)?
Answer: did not affect

Question: And the “WAT expression of Pgc1a and Ucp1” value (HFD mice, WAT qRT-PCR)?
Answer: induced

Question: And the “WAT expression of resistin and glucose transporters Slc2a2, Slc2a4” value (HFD mice, WAT qRT-PCR)?
Answer: increased

Question: And the “WAT expression of vaspin (Serpina12)” value (HFD mice, WAT qRT-PCR)?
Answer: completely abolished

Question: What about the “WAT mRNA of pro-fibrotic (Cola1, Ctgf, Mmp2, Timp1) and pro-inflammatory (Il6, Ccl2) genes” value (HFD mice, WAT qRT-PCR) of the same compound?
Answer: downregulated

Question: And the “NAD+ in liver” value (HFD mice, liver metabolomics)?
Answer: restored high levels

Question: What about the “hepatic Ucp2 and Ucp3 expression” value (HFD mice, qRT-PCR) of the same compound?
Answer: highly upregulated

Question: What about the “hepatic expression of FA metabolism genes Acox1, Cpt1b, Pdk4, Hadha, Cd36” value (HFD mice, qRT-PCR) of the same compound?
Answer: strong upregulation

Question: What about the “hepatic expression of glucose metabolism genes Pklr, G6pc, Slc2a2” value (HFD mice, qRT-PCR) of the same compound?
Answer: normalized

Question: And the “liver Adipor2 expression” value (HFD mice, qRT-PCR)?
Answer: downregulated

Question: And the “liver Ctgf mRNA levels” value (HFD mice, qRT-PCR)?
Answer: significantly decreased

Question: And the “liver Mmp2 mRNA levels” value (HFD mice, qRT-PCR)?
Answer: significantly decreased

Question: What about the “liver Retn (resistin) expression” value (HFD mice, qRT-PCR) of the same compound?
Answer: restored to normal levels

Question: What about the “liver Serpina12 (vaspin) expression” value (HFD mice, qRT-PCR) of the same compound?
Answer: downregulated

Question: And the liver pro-inflammatory genes (HFD mice, qRT-PCR)?
Answer: not modulated

Question: What about the “WAT extent of interstitial fibrosis” value (HFD mice, white adipose tissue) of the same compound?
Answer: decreased

Question: And the “WAT immune cell infiltration” value (HFD mice, white adipose tissue)?
Answer: decreased

Question: What about the serum total cholesterol (HFD mice, after four weeks of treatment) of the same compound?
Answer: returned to similar level as in the HFD group

Question: And the serum total cholesterol (HFD mice, after two weeks of treatment)?
Answer: slightly increased

Question: What about the HOMA-IR index (WT vs KO study, HFD-fed WT) of the same compound?
Answer: reduced

Question: And the “WAT mean adipocyte diameters and area” value (WT vs KO study, HFD-fed WT)?
Answer: remained unchanged

Question: And the “fasting blood glucose levels” value (WT vs KO study, HFD-fed WT)?
Answer: downregulated

Question: And the insulin levels (WT vs KO study, HFD-fed WT)?
Answer: reduced

Question: And the liver glycogen levels (WT vs KO study, HFD-fed WT)?
Answer: increased

Question: And the serum adiponectin (WT vs KO study, HFD-fed WT)?
Answer: upregulated

Question: And the serum cholesterol levels (WT vs KO study, HFD-fed WT)?
Answer: remained unchanged

Question: What about the serum triglyceride levels (WT vs KO study, HFD-fed WT) of the same compound?
Answer: lowered

Question: What about the “α-SMA positive liver staining (immunofluorescence)” value (WT vs KO study, HFD-fed WT) of the same compound?
Answer: dramatic drop

Question: And the bodyweight (WT vs KO study, HFD-fed WT, 10 mg/kg daily, 8 weeks)?
Answer: decreased

Question: What about the OGTT (WT vs KO study, HFD-fed WT, after 6 weeks) of the same compound?
Answer: significant effect

Question: What about the “AMPK phosphorylation levels in the liver” value (data not shown) of the same compound?
Answer: promote
